From patent publication US10696682B2, “CDK inhibitors” (G1 Therapeutics, Inc., priority 2010, dated 2020)

Biological target: CDK4/cyclinD (Homo sapiens (Human), UniProt P11802)
Test: CDK4/CyclinD kinase enzymatic assay (Caliper LabChip)
Type: biochemical
Details: tested as HCl salts, 12-point dose response, at the Km for ATP, three hours
Method: Kinase enzymatic reactions were performed in 384-well microplates using a 12-channel Caliper LabChip instrument as a detection device. […] As substrate and product are separated, two peaks of fluorescence are observed. Change in the relative fluorescence intensity of the substrate and product peaks is the parameter measured, reflecting enzyme activity. In the presence of an inhibitor, the ratio between product and substrate is altered. The signal of the product decreases, while the signal of the substrate increases.
Potential inhibitor compounds (as HCl salts) were tested using 12-point dose response curves in […] at the Km for ATP. The IC50 of each compound was determined using GraphPad Prism.

CDK4/cyclinD, sequence (P11802 whole entry, species assumed): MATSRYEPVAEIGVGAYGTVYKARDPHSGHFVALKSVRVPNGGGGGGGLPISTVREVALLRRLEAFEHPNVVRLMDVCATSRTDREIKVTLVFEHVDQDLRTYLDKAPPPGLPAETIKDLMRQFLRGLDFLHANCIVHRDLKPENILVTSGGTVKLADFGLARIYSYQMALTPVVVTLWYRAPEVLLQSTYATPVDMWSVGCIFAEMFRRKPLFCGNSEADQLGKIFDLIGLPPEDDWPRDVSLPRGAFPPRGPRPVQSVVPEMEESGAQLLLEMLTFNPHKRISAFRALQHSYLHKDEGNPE
CDK4/cyclinD, sequence (P24385 whole entry partner, species assumed): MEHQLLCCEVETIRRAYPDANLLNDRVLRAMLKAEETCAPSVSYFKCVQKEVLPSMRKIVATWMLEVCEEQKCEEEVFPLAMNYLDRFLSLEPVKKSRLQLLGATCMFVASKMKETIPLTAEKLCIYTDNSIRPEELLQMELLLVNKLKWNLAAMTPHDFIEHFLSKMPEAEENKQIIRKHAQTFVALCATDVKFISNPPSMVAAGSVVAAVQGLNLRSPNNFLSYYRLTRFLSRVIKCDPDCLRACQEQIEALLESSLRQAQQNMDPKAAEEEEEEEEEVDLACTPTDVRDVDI

## O=C1NCCn2c1cc1cnc(Nc3ccc(N4CCNCC4)cn3)nc12 [Compound 3]
  IC50: 1050 nM
